In patent US11446270B2, “Leonurine crystal and use thereof in preparation of insulin sensitizer, hypoglycemic drug and lipid-lowering drug” (ZHUHAI HENGQIN NEW DISTRICT ZHONGZHU ZHENGTAI MEDICAL …, priority 2017, dated 2022):
Entries after “also recorded” stand apart in the source; their conditions may differ.

How the values were obtained:
[1] = Chronic administration for 3 weeks, body weight of rats; format: in vivo, rat; details: fourth week (one week after discontinuation), vs solvent control, listed as leonurine crystal form A
Experimental: Forty male Sprague-Dawley rats weighed 180 to 220 g were randomly divided into 4 groups (10 rats each group): control group are treated with equal volume of DMSO, and the treatment groups were administered at 30 mg/kg per day, 60 mg/kg per day, and 120 mg/kg per day of leonurine crystal form A respectively, where leonurine crystal form A was dissolved in DMSO at concentrates of 30 mg/ml, 60 mg/ml and 120 mg/ml, and the volume of vehicle administered intragastrically in each rat was 1 ml per kg of body weight. The rats were treated with leonurine crystal form A or DMSO once a day continuously for 3 weeks, and the body weight and fasting blood-glucose were detected at third week. The rats were fasted (allowed water ad libitum) for 12 h before experiment. Fasting blood-glucose and body weight were tested after 1 h of administered drugs. The rats were not given drugs on the next days for one week, and the body weight and fasting blood-glucose were detected at forth week. The data were analyzed by SPSS statistical software (version 11.5), and results were expressed as the mean±standard error of the mean (mean±SEM). Multiple group comparisons were tested by one-way analysis of variance (ANOVA). P<0.05 was considered as statistically significant.

[2] = system: New Zealand white rabbit; test: Serum lipids in hyperlipidemia New Zealand rabbits on high fat diet; format: in vivo; details: 12 weeks
Experimental: Forty-eight male New Zealand rabbits weighed 1.8 to 2.2 kg were housed under 12 h dark-12 h light cycles and allowed food and water ad libitum to adapt to the housing environment for one week, and then randomly divided into 6 groups: • 1) Control group (Normal diet, n=8); Administered intragastrically with ultrapure water; • 2) Model group (High fat diet, n=8); Administered intragastrically with ultrapure water; • 3) Leonurine crystal form A in low dose group (High fat diet, n=8); Administered intragastrically at a dose of 4 mg/kg/day; • 4) Leonurine crystal form A in middle dose group (High fat diet, n=8); Administered intragastrically at a dose of 8 mg/kg/day; • 5) Leonurine crystal form A in high dose group (High fat diet, n=8); […] Administered intragastrically at a dose of 2.5 mg/kg/day; Rabbits were weighed before administered drugs every week, where the dosage of the drug for rabbits is calculate according to the weight; and housed in an air-conditioned room under (24±1° C. room temperature and 55±5% air humidity) and allowed enough food and water ad libitum. After 12 weeks of administration, the rabbits were fasted for 12 h, and blood (2 ml) was drawn from the marginal ear vein for hematology analysis. Hematology analysis: blood samples were let for standing for 2 h and centrifuged (3000 rpm, 10 min, 4° C.) to obtain serum. The serum samples were tested according to the protocols recommended by Nanjing Jiancheng Bioengineering Institute. The total cholesterol (TC), triacylglycerol (TG), low-density cholesterol (LDL-C) and […] (HDL-C) levels in the serum samples were assessed using automatic microplate reader and automatic biochemical analyzer. Statistical analysis: GraphPad Prism 5 software was used to analyze and draw figure. Results were expressed as the mean±standard (mean±SD), and statistical analysis was performed by one-way analysis of variance (ANOVA) or student's t test. A difference with P<0.05 was considered statistically significant. Statistical significance was set at *P<0.05, **P<0.01, ***P<0.001 versus the model group.

[3] = dose not stated, listed as leonurine crystal form A
[4] = high dose group 16 mg/kg/day intragastric, vs model group

COc1cc(C(=O)OCCCCNC(=N)N)cc(OC)c1O [crystal form A, 4-guanidino-1-butyl 4-hydroxy-3,5-dimethoxybenzoate]
weight of rats ([1]; 60 mg/kg/d for 3 weeks): significantly reduced; also recorded: significantly decreased | weight of rats ([1]; 120 mg/kg/d for 3 weeks): had not statistically difference; also recorded: not statistically significant | serum total cholesterol (TC) [2, 3]: reduce; also recorded: decrease | serum triglycerides / total triacylglycerol (TG) [2, 3]: reduce; also recorded: decrease | serum total cholesterol (TC) [2, 4]: reduced | serum triacylglycerol (TG) [2, 4]: reduced | serum triacylglycerol (TG) ([2]; middle dose group 8 mg/kg/day intragastric, vs model group): reduced
